Legend:
Assay in all cases: radiometric filter-binding kinase assay, Kinase HotSpot
Settings in all cases: compound 0.5 µM; ATP 10 µM
[1] = target: EPHA7 (human) (UniProt Q15375)
[2] = target: PAK6 (human) (UniProt Q9NQU5)
[3] = target: HIPK1 (human) (UniProt Q86Z02)
[4] = target: SRPK1 (human) (UniProt Q96SB4)
[5] = target: SGK3 (human) (UniProt Q96BR1)
[6] = target: BLK (human) (UniProt P51451)
[7] = target: DDR2 (human) (UniProt Q16832)
[8] = target: RPS6KB1 (human) (UniProt P23443)
[9] = target: SIK2 (human) (UniProt Q9H0K1)
[10] = target: FYN (human) (UniProt P06241)
[11] = target: AKT1 (human) (UniProt P31749)
[12] = target: INSR (human) (UniProt P06213)
[13] = target: STK25 (human) (UniProt O00506)
[14] = target: CDK7 CCNH MNAT1 (human) (UniProt P50613+P51948+P51946)
[15] = target: PLK2 (human) (UniProt Q9NYY3)
[16] = target: MAPK13 (human) (UniProt O15264)
[17] = target: TSSK2 (human) (UniProt Q96PF2)
[18] = target: SRPK3 (human) (UniProt Q9UPE1)
[19] = target: PRKCD (human) (UniProt Q05655)
[20] = target: DAPK3 (human) (UniProt O43293)
[21] = target: PLK1 (human) (UniProt P53350)
[22] = target: STK17A (human) (UniProt Q9UEE5)
[23] = target: GSK3B (human) (UniProt P49841)
[24] = target: CDK5 CDK5R1 p35 (human) (UniProt Q00535+Q15078)
[25] = target: DCLK2 (human) (UniProt Q8N568)
[26] = target: GRK7 (human) (UniProt Q8WTQ7)
[27] = target: MKNK2 (human) (UniProt Q9HBH9)
[28] = target: FES (human) (UniProt P07332)
[29] = target: MAPK11 (human) (UniProt Q15759)
[30] = target: MST4 (human) (UniProt Q9P289)
[31] = target: CDK4 CCND1 (human) (UniProt P24385+P11802)
[32] = target: IKBKB (human) (UniProt O14920)
[33] = target: BTK (human) (UniProt Q06187)
[34] = target: PRKD2 (human) (UniProt Q9BZL6)
[35] = target: AXL (human) (UniProt P30530)
[36] = target: MARK4 (human) (UniProt Q96L34)
[37] = target: EPHA5 (human) (UniProt P54756)
[38] = target: FGFR2 (human) (UniProt P21802)
[39] = target: TBK1 (human) (UniProt Q9UHD2)
[40] = target: NEK9 (human) (UniProt Q8TD19)
[41] = target: CDK4 CCND3 (human) (UniProt P30281+P11802)
[42] = target: CSNK1D (human) (UniProt P48730)

Chain of DCLK2 (human) (Q8N568 whole entry, looked up): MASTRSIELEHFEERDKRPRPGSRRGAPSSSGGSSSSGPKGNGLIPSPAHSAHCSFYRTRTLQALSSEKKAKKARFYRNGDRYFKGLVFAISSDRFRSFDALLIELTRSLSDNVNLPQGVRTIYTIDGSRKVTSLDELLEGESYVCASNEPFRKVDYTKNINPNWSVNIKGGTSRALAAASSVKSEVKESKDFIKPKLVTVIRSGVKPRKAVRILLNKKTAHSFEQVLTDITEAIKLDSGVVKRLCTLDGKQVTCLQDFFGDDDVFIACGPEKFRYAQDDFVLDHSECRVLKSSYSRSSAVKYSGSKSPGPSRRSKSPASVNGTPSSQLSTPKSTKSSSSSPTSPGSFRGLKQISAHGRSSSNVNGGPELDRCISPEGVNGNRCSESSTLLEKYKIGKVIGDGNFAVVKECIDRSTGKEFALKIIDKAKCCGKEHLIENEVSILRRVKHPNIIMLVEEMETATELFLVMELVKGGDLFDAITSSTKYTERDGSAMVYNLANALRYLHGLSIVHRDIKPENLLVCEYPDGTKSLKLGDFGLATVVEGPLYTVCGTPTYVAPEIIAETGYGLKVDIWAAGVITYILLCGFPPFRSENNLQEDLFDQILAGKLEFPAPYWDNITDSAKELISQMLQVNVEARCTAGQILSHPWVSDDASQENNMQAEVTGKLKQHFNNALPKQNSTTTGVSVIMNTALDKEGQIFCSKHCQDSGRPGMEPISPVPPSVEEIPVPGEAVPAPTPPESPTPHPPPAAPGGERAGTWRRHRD
Chain of SIK2 (human) (Q9H0K1 whole entry, looked up): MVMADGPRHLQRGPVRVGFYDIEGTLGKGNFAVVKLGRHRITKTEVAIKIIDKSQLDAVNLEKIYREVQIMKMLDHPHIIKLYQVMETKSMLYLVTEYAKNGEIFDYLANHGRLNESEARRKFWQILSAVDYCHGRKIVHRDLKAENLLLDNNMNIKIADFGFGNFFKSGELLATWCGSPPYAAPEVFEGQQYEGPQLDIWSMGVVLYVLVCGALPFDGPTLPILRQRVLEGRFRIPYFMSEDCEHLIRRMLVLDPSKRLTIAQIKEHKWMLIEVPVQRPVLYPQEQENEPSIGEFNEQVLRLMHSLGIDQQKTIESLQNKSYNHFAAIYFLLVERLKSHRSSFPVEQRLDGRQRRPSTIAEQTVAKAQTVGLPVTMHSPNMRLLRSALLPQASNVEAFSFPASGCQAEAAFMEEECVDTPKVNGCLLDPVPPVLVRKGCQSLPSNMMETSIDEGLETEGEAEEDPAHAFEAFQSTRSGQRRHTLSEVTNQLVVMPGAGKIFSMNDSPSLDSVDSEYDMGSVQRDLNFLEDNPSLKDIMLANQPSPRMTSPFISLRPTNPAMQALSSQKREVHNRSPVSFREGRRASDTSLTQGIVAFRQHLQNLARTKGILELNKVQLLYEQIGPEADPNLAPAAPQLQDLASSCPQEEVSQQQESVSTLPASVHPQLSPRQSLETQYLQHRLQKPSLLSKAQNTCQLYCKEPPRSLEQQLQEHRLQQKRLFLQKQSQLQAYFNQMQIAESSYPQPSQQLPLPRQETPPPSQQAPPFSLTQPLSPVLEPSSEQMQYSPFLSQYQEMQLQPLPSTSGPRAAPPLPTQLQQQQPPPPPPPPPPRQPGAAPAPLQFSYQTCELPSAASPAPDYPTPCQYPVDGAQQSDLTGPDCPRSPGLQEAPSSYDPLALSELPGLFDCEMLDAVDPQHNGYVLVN
Chain of FES (human) (P07332 whole entry, looked up): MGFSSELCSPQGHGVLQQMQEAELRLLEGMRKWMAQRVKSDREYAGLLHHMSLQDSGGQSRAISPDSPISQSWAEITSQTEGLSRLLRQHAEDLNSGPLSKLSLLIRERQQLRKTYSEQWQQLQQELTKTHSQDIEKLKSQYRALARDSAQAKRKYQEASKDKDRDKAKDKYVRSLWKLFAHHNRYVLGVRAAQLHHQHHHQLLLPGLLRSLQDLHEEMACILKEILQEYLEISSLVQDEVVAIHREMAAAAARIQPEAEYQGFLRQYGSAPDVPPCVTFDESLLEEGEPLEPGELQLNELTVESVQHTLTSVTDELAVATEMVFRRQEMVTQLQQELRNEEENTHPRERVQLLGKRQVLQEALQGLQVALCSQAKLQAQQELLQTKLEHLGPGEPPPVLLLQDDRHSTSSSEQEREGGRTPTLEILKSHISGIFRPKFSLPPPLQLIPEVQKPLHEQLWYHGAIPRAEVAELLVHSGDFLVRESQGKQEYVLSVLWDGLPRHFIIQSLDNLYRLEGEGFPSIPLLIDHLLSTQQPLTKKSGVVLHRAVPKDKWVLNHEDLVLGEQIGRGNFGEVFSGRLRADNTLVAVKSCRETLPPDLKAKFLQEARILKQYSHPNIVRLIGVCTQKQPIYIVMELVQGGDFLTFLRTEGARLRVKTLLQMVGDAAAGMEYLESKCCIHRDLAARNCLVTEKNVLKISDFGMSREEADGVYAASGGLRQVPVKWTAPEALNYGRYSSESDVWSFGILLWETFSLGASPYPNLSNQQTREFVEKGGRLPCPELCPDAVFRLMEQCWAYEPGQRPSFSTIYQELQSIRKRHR
Chain of SRPK3 (human) (Q9UPE1 whole entry, looked up): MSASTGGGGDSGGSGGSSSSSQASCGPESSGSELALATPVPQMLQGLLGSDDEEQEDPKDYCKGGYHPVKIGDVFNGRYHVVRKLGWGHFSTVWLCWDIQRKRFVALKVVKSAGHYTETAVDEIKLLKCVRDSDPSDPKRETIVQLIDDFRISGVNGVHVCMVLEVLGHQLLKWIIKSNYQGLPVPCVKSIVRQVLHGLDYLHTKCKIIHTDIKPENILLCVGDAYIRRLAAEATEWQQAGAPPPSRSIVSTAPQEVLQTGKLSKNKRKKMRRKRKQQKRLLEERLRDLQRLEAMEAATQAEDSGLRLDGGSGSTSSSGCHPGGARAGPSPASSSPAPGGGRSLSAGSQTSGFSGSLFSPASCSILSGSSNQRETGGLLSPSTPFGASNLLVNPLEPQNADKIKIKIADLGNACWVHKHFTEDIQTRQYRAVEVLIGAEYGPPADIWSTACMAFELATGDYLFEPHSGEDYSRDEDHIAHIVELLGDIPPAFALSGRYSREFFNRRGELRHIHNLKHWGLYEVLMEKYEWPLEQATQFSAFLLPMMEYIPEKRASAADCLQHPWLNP
Chain of FYN (human) (P06241 whole entry, looked up): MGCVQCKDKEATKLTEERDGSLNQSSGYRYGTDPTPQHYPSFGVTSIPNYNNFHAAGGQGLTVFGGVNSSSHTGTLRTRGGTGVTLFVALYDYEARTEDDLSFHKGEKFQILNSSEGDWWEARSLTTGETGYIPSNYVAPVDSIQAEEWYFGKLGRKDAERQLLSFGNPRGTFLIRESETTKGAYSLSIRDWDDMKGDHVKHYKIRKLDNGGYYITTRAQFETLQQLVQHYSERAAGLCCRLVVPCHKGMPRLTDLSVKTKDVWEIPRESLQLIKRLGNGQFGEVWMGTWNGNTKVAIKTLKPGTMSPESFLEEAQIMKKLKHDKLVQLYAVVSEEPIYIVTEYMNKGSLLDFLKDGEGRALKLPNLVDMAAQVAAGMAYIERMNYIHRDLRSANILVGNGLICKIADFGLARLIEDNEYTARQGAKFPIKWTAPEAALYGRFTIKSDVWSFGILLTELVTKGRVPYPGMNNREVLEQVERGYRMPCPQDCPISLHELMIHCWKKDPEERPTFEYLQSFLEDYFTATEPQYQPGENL
Chain of STK25 (human) (O00506 whole entry, looked up): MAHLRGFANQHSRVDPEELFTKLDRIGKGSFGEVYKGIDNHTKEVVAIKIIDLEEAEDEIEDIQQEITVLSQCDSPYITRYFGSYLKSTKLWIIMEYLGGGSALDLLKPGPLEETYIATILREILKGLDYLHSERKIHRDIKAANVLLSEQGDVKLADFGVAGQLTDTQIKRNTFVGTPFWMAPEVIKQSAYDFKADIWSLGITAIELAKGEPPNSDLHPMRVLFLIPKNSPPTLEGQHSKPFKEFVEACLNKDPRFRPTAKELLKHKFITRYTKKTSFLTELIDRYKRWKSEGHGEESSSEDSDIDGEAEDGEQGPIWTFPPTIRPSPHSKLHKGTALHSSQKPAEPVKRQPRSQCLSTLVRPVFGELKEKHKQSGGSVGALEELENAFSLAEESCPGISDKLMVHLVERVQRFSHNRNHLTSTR
Chain of AXL (human) (P30530 whole entry, looked up): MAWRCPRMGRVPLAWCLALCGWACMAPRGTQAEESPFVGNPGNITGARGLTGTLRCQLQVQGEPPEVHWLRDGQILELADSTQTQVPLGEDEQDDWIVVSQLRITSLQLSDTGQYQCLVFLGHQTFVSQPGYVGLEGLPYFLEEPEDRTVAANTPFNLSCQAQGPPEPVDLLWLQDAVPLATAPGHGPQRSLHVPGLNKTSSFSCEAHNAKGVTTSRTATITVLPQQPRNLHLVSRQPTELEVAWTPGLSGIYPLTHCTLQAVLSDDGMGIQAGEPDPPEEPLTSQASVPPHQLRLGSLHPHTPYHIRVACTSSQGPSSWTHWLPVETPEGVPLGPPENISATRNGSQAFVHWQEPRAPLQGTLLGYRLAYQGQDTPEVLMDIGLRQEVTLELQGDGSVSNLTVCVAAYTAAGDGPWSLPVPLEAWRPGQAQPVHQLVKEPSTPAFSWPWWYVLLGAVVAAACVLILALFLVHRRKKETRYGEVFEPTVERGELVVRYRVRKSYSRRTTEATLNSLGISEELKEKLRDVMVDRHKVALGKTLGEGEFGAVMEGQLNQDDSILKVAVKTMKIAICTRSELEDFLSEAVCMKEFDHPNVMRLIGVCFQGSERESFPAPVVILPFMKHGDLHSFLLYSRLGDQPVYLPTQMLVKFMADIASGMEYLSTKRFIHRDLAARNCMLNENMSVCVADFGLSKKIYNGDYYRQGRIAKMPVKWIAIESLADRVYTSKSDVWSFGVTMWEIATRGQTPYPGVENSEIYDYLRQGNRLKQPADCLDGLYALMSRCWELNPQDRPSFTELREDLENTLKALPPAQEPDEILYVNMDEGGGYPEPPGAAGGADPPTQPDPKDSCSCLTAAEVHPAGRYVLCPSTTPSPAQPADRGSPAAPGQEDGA

Clc1ccc(Nc2nnc(Cc3ccncc3)c3ccccc23)cc1
residual activity [1]: 90.5% | residual activity [2]: 107% | residual activity [3]: 99.2% | residual activity [4]: 98.5% | residual activity [5]: 99.2% | residual activity [6]: 105% | residual activity [7]: 97.1% | residual activity [8]: 102% | residual activity [9]: 97.9% | residual activity [10]: 104% | residual activity [11]: 103% | residual activity [12]: 99.9% | residual activity [13]: 94% | residual activity [14]: 107% | residual activity [15]: 101% | residual activity [16]: 88.9% | residual activity [17]: 82.8% | residual activity [18]: 104% | residual activity [19]: 97.4% | residual activity [20]: 107% | residual activity [21]: 95.9% | residual activity [22]: 99.4% | residual activity [23]: 104% | residual activity [24]: 97.2% | residual activity [25]: 100% | residual activity [26]: 92.2% | residual activity [27]: 101% | residual activity [28]: 94.7% | residual activity [29]: 96.9% | residual activity [30]: 118% | residual activity [31]: 96.6% | residual activity [32]: 85.6% | residual activity [33]: 95.4% | residual activity [34]: 86% | residual activity [35]: 98.3% | residual activity [36]: 104% | residual activity [37]: 109% | residual activity [38]: 96% | residual activity [39]: 104% | residual activity [40]: 98.4% | residual activity [41]: 102% | residual activity [42]: 92.2%

CC(C)[C@H](CO)Nc1nc(Nc2cccc(Cl)c2)c2ncn(C(C)C)c2n1
residual activity [1]: 86.8% | residual activity [2]: 111% | residual activity [3]: 103% | residual activity [4]: 77% | residual activity [5]: 97.6% | residual activity [6]: 68.8% | residual activity [7]: 99.1% | residual activity [8]: 90.8% | residual activity [9]: 92.2% | residual activity [10]: 48.9% | residual activity [11]: 102% | residual activity [12]: 83% | residual activity [13]: 116% | residual activity [14]: 59.5% | residual activity [15]: 102% | residual activity [16]: 122% | residual activity [17]: 97.5% | residual activity [18]: 70.4% | residual activity [19]: 104% | residual activity [20]: 104% | residual activity [21]: 89.2% | residual activity [22]: 95% | residual activity [23]: 103% | residual activity [24]: 2.61% | residual activity [25]: 100% | residual activity [26]: 88.8% | residual activity [27]: 87.5% | residual activity [28]: 95.9% | residual activity [29]: 109% | residual activity [30]: 100% | residual activity [31]: 83.4% | residual activity [32]: 107% | residual activity [33]: 75.6% | residual activity [34]: 99.7% | residual activity [35]: 94.7% | residual activity [36]: 89.8% | residual activity [37]: 87.9% | residual activity [38]: 105% | residual activity [39]: 93% | residual activity [40]: 93.1% | residual activity [41]: 88.3% | residual activity [42]: 92.2%

CCCNC(=O)Nc1ccc(Oc2ncnc3cc(OC)c(OC)cc23)cc1Cl
residual activity [1]: 86.3% | residual activity [2]: 106% | residual activity [3]: 96.8% | residual activity [4]: 102% | residual activity [5]: 95.5% | residual activity [6]: 96.8% | residual activity [7]: 67.6% | residual activity [8]: 90.6% | residual activity [9]: 101% | residual activity [10]: 92.7% | residual activity [11]: 93% | residual activity [12]: 92.4% | residual activity [13]: 92.6% | residual activity [14]: 119% | residual activity [15]: 104% | residual activity [16]: 100% | residual activity [17]: 98.7% | residual activity [18]: 95.8% | residual activity [19]: 90.1% | residual activity [20]: 88.8% | residual activity [21]: 101% | residual activity [22]: 99% | residual activity [23]: 91.3% | residual activity [24]: 98% | residual activity [25]: 96.4% | residual activity [26]: 94.7% | residual activity [27]: 81.3% | residual activity [28]: 96% | residual activity [29]: 88.5% | residual activity [30]: 86.9% | residual activity [31]: 102% | residual activity [32]: 100% | residual activity [33]: 98.6% | residual activity [34]: 94.3% | residual activity [35]: 101% | residual activity [36]: 110% | residual activity [37]: 81.8% | residual activity [38]: 91.3% | residual activity [39]: 90% | residual activity [40]: 83.3% | residual activity [41]: 101% | residual activity [42]: 98.9%

From the kinase profiling compilation of Christmann-Franck et al. (2016)
